US20060228706A1, “Methods of diagnosing and treating diabetes and insulin resistance” (Metabolex, Inc., priority 2002, published 2006)
Where “and” joins values, the source holds several entries; their conditions need not be identical. Equal entries are not always repeated.

Columns and labels:
hP2RY1 [1] = target: T1, hP2RY1 (Homo sapiens, UniProt P47900); experiment: Glucose transport analysis in 3T3-L1 adipocytes over-expressing hP2RY1 (adenovirus); assay type: cell-based
T1 construct: expressed in transfected cells; host or cells: differentiated murine 3T3-L1 adipocytes (A2) or differentiated L6 myotubes (A4), infected with recombinant adenovirus
T1 sequence (P47900 whole entry): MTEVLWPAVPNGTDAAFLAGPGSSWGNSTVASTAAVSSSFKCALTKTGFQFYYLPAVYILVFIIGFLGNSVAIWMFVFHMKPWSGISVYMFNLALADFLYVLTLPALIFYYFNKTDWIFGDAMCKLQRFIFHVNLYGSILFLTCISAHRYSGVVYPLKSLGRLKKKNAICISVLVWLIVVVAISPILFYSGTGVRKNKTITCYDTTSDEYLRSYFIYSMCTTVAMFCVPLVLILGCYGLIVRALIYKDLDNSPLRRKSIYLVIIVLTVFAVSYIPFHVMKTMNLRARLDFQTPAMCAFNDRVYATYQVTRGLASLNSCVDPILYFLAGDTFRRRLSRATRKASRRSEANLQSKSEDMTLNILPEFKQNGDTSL
Method: (§1) In some instances another analysis called “glucose transport” was used. This involves over-expressing the gene in either differentiated 3T3-L1 adipocytes or differentiated L6 myotubes and then monitoring the ability of insulin to stimulate glucose transport into these two cell types. A recombinant adenovirus encoding the human gene tagged with a FLAG epitope tag was prepared essentially as described in Zhou et al., Proc. Nat. Acad. Sci. USA. 95:2509-2514 (1998). 3T3-L1 adipocytes or L6 myotubes were infected with recombinant adenovirus expressing the human gene. A virus expressing an irrelevant protein was used as the control. Twenty four hours post infection the cells are stimulated with increasing concentrations of insulin and glucose transport into the cells determined by the counting the accumulation of a radiolabelled glucose analog (2-deoxyglucose) essentially as described in Kotani et al., Mol. Cell. Biol. 18:6971-6982 (1998), Fujishiro et al., J. Biol. Chem. 276:19800-19806 (2001), Ross et al., Biochem. Biophys. Res. Commun. 302:354-358 (2003)

hP2RY1 [2] = target: T1, hP2RY1; experiment: Glucose transport analysis in L6 myotubes over-expressing hP2RY1 (adenovirus); assay type: cell-based
Method: as §1

3T3-L1 adipocytes = experiment: Glucose transport analysis in 3T3-L1 adipocytes (2-deoxyglucose uptake), cells not expressing hP2RY1; assay type: cell-based, murine; conditions: basal glucose transport (no insulin), 2-MeSADP 1 μM for 6 hours, mean of 5 experiments
Method: as §1

L6 myotubes = experiment: Glucose transport analysis in L6 myotubes (2-deoxyglucose uptake), cells not expressing hP2RY1; assay type: cell-based; conditions: basal glucose transport (no insulin), 2-MeSADP 1 μM for 6 hours
Method: as §1

Fold Change 2 (Basal plus P2RY1 plus 2-MeSADP)/(Basal no P2RY1 no 2-MeSADP), Mean +/− SEM (n = 5) (hP2RY1 [1]; basal glucose transport (no insulin), hP2RY1-expressing 3T3-L1 adipocytes, 2-MeSADP 1 μM for 6 hours, mean of 5 experiments): 2.11 +/− 0.34
Fold Change 2 (Basal plus P2RY1 plus 2-MeSADP)/(Basal no P2RY1 no 2-MeSADP), Mean (n = 2) (hP2RY1 [2]; basal glucose transport (no insulin), hP2RY1-expressing L6 myotubes, 2-MeSADP 1 μM for 6 hours, mean of 2 experiments): 1.81
Fold Change 2 (Basal plus P2RY1 plus 2-MeSADP)/(Basal no P2RY1 no 2-MeSADP) (hP2RY1 [2]; basal glucose transport (no insulin), hP2RY1-expressing L6 myotubes, 2-MeSADP 1 μM for 6 hours, single experiments): 1.71 and 1.91
SMILES: CSc1nc(N)c2ncn([C@@H]3O[C@H](COP(=O)(O)OP(=O)(O)O)[C@@H](O)[C@H]3O)c2n1 [2-MeSADP]
basal glucose transport, result in words (hP2RY1 [1]; 3T3-L1 adipocytes with or without hP2RY1): can be stimulated by a P2RY1 agonist but only when the hP2RY1 is expressed in the cells
basal glucose transport, result in words (hP2RY1 [2]; L6 myotubes with or without hP2RY1): can be stimulated by a P2RY1 agonist but only when the hP2RY1 is expressed in the cells
Fold Change 1 (Basal plus 2-MeSADP)/(Basal no 2-MeSADP), Mean +/− SEM (n = 5) (3T3-L1 adipocytes): 1.07 +/− 0.13
Fold Change 1 (Basal plus 2-MeSADP)/(Basal no 2-MeSADP), Mean (n = 2) (L6 myotubes; mean of 2 experiments): 0.97
Fold Change 1 (Basal plus 2-MeSADP)/(Basal no 2-MeSADP) (L6 myotubes; single experiments): 0.99 and 0.95
